This test concerns the target Gag-Pol polyprotein (Human immunodeficiency virus type 1 group M subtype B (isolate HXB2), UniProt P04585). The test is described as follows: HIV-1 RT Colorimetric Assay. The protocol: The reaction mixture was set with template primer complex, RT enzyme and dNTPs in a lysis buffer with or without inhibitors. The reaction mixture was incubated at 37 °C for 1 h and then transferred to streptavidin-coated microtitre plate (MTP). The biotin-labeled dNTPs that were incorporated in the template due to activity ofRT, bound to streptavidin. The unbound dNTPs were washed using wash buffer and anti-DIG-POD was added to the MTP. The DIGlabeled dNTPs incorporated in the template were bound to an anti-DIG-POD antibody. The unbound anti-DIG-POD was washed again with washing buffer and the peroxide substrate (ABST) was added to the MTP. A colored reaction product was produced during the cleavage of the substrate catalyzed by a peroxide enzyme. The absorbance of the sample was determined as an optical density (OD) at 405 nm using a micro titer plate ELISA reader.
For orientation: IC50 means the concentration at which inhibition is half-maximal. A lower IC50 goes with higher potency. In turn, `COc1ccc2c(c1)CCCN2CCC(=O)N1CCN(c2cccc(Cl)c2Cl)CC1` [1-(4-(2,3-dichlorophenyl)piperazin-1-yl)-3-(6-methoxy-3,4-dihydroquinolin-1(2H)-yl)propan-1-one (6o)] gave an IC50 of 14.5 µM.
With `COc1ccc2c(c1)CCCN2CCC(=O)N1CCN(c2ccccc2Cl)CC1` [1-(4-(2-chlorophenyl)piperazin-1-yl)-3-(6-methoxy-3,4-dihydroquinolin-1(2H)-yl)propan-1-one (6i)] the figure was 32.9 µM; with `COc1ccc2c(c1)CCCN2CCC(=O)N1CCN(c2ccccc2F)CC1` [1-(4-(2-fluorophenyl)piperazin-1-yl)-3-(6-methoxy-3,4-dihydroquinolin-1(2H)-yl)propan-1-one (6g)], 47.5 µM; with `COc1ccc2c(c1)CCCN2CCC(=O)N1CCN(c2cccc(Cl)c2)CC1` [1-(4-(3-chlorophenyl)piperazin-1-yl)-3-(6-methoxy-3,4-dihydroquinolin-1(2H)-yl)propan-1-one (6j)], 18.6 µM.
With `COc1ccc2c(c1)CCCN2CCC(=O)N1CCN(c2ccc(Cl)cc2)CC1` [1-(4-(4-chlorophenyl)piperazin-1-yl)-3-(6-methoxy-3,4-dihydroquinolin-1(2H)-yl)propan-1-one (6k)] the figure was 24.9 µM; with `COc1ccc2c(c1)CCCN2CCC(=O)N1CCN(c2ccc(F)cc2)CC1` [1-(4-(4-fluorophenyl)piperazin-1-yl)-3-(6-methoxy-3,4-dihydroquinolin-1(2H)-yl)propan-1-one (6h)], 78.5 µM.
The result for `COc1ccc2c(c1)CCCN2CCC(=O)N1CCN(Cc2ccccc2)CC1` [1-(4-benzylpiperazin-1-yl)-3-(6-methoxy-3,4-dihydroquinolin-1(2H)-yl)propan-1-one (6m)] reads over 100 µM; that for `COc1ccc2c(c1)CCCN2CCC(=O)N1CCN(c2ccccc2OC)CC1` [3-(6-methoxy-3,4-dihydroquinolin-1(2H)-yl)-1-(4-(2-methoxyphenyl)piperazin-1-yl)propan-1-one (6d)], 52.8 µM; that for `COc1cccc(N2CCN(C(=O)CCN3CCCc4cc(OC)ccc43)CC2)c1` [3-(6-methoxy-3,4-dihydroquinolin-1(2H)-yl)-1-(4-(3-methoxyphenyl)piperazin-1-yl)propan-1-one (6e)], 58.2 µM.
`COc1ccc(N2CCN(C(=O)CCN3CCCc4cc(OC)ccc43)CC2)cc1` [3-(6-methoxy-3,4-dihydroquinolin-1(2H)-yl)-1-(4-(4-methoxyphenyl)piperazin-1-yl)propan-1-one (6f)] came in with a half-maximal inhibitory concentration (IC50) of over 100 µM.
`COc1ccc2c(c1)CCCN2CCC(=O)N1CCN(c2ccc([N+](=O)[O-])cc2)CC1` [3-(6-methoxy-3,4-dihydroquinolin-1(2H)-yl)-1-(4-(4-nitrophenyl)piperazin-1-yl)propan-1-one (6l)] displayed an IC50 of 82.7 µM.
The result for `COc1ccc2c(c1)CCCN2CCC(=O)N1CCN(c2ccccn2)CC1` [3-(6-methoxy-3,4-dihydroquinolin-1(2H)-yl)-1-(4-(pyridin-2-yl)piperazin-1-yl)propan-1-one (6n)] reads 48.6 µM; that for `COc1ccc2c(c1)CCCN2CCC(=O)N1CCN(c2ccccc2C)CC1` [3-(6-methoxy-3,4-dihydroquinolin-1(2H)-yl)-1-(4-o-tolylpiperazin-1-yl)propan-1-one (6b)], 12.5 µM.
Take `COc1ccc2c(c1)CCCN2CCC(=O)N1CCN(c2ccc(C)cc2)CC1` [3-(6-methoxy-3,4-dihydroquinolin-1(2H)-yl)-1-(4-p-tolylpiperazin-1-yl)propan-1-one (6c)]: the half-maximal inhibitory concentration (IC50) was 28.5 µM.
As to `COc1ccc2c(c1)CCCN2CCC(=O)N1CCN(c2ccccc2)CC1` [3-(6-methoxy-3,4-dihydroquinolin-1(2H)-yl)-1-(4-phenylpiperazin-1-yl)propan-1-one (6a)], inhibition was half-maximal at 24.3 µM (IC50).

The record behind these values is BindingDB's records for doi:10.1016/j.bioorg.2016.05.009 (Birla Institute of Technology, 2016).
